Results reported in ChEMBL document CHEMBL1131678, “Arachidonic acid amide inhibitors of gap junction cell-cell communication” (1999).

Legend:
Rattus norvegicus [1] = species on record: Rattus norvegicus; assay: Inhibition of rat glial cell gap junction at the concentration of 50 uM; assay type: functional
Rattus norvegicus [2] = species on record: Rattus norvegicus; assay: Tested for inhibition of rat glial cell gap junction at the concentration of 20 uM; assay type: functional

**Q.** How did the inhibition at 50 µM (Rattus norvegicus [1]) turn out when `CCCCC/C=C\C/C=C\C/C=C\C/C=C\CCCC(=O)N(C)C(C)C` was run?
**A.** Its inhibition at 50 µM is 100%.

**Q.** Which inhibition at 50 µM (Rattus norvegicus [1]) does the source give for `CCCCCCCC/C=C\CCCCCCCC(=O)N(C)C` here?
**A.** The inhibition at 50 µM was 100%.

**Q.** What about the inhibition at 20 µM (Rattus norvegicus [2]) of the same compound?
**A.** Its inhibition at 20 µM is 70%.

**Q.** `CCCCCCCC/C=C\CCCCCCCC(=O)N(CC)CC` was tested. Which inhibition at 50 µM (Rattus norvegicus [1]) did it give?
**A.** The inhibition at 50 µM was 100%.

**Q.** What about the inhibition at 20 µM (Rattus norvegicus [2]) of the same compound?
**A.** The inhibition at 20 µM was 15%.

**Q.** How did the inhibition at 50 µM (Rattus norvegicus [1]) turn out when `CCCCCCCC/C=C\CCCCCCCC(=O)NCC` was run?
**A.** The inhibition at 50 µM was 100%.

**Q.** What about the inhibition at 20 µM (Rattus norvegicus [2]) of the same compound?
**A.** The inhibition at 20 µM was 50%.

**Q.** How did the inhibition at 50 µM (Rattus norvegicus [1]) turn out when `CCCCC/C=C\C/C=C\C/C=C\C/C=C\CCCC(=O)NCCCC` was run?
**A.** The inhibition at 50 µM was 10%.

**Q.** `CCCCC/C=C\C/C=C\C/C=C\C/C=C\CCCC(=O)N(C)C` was tested. Which inhibition at 50 µM (Rattus norvegicus [1]) did it give?
**A.** Its inhibition at 50 µM is 100%.

**Q.** With `CCCCCCCC/C=C\CCCCCCCC(=O)NC(C)C` as the compound, how does the inhibition at 50 µM (Rattus norvegicus [1]) read?
**A.** The inhibition at 50 µM was 100%.

**Q.** What does the source list for `CCCCCCCC/C=C\CCCCCCCC(=O)N1CCCC1`?
**A.** inhibition at 50 µM (Rattus norvegicus [1]): 100%; inhibition at 20 µM (Rattus norvegicus [2]): 0%

**Q.** How did the inhibition at 50 µM (Rattus norvegicus [1]) turn out when `CCCCC/C=C\C/C=C\C/C=C\C/C=C\CCCC(=O)N(C)OC` was run?
**A.** Its inhibition at 50 µM is 100%.

**Q.** For `CCCCCCCC/C=C\CCCCCCCC(=O)NC1CC1`, which inhibition at 50 µM (Rattus norvegicus [1]) is on record?
**A.** Its inhibition at 50 µM is 100%.

**Q.** How did the inhibition at 50 µM (Rattus norvegicus [1]) turn out when `C=CCNC(=O)CCCCCCC/C=C\CCCCCCCC` was run?
**A.** Its inhibition at 50 µM is 100%.

**Q.** Which results are given for `CCCCCCCC/C=C\CCCCCCCC(=O)N(CCO)CCO`?
**A.** inhibition at 50 µM (Rattus norvegicus [1]): 8%; inhibition at 20 µM (Rattus norvegicus [2]): 0%

**Q.** `CCCCC/C=C\C/C=C\C/C=C\C/C=C\CCCC(=O)NC` was tested. Which inhibition at 50 µM (Rattus norvegicus [1]) did it give?
**A.** Its inhibition at 50 µM is 100%.

**Q.** With `CCCCCCCC/C=C\CCCCCCCC(=O)N(C)C(C)C` as the compound, how does the inhibition at 50 µM (Rattus norvegicus [1]) read?
**A.** The inhibition at 50 µM was 100%.

**Q.** Which inhibition at 50 µM (Rattus norvegicus [1]) does the source give for `CCCCC/C=C\C/C=C\C/C=C\C/C=C\CCCC(=O)N(CC)CC` here?
**A.** Its inhibition at 50 µM is 100%.

**Q.** Which inhibition at 50 µM (Rattus norvegicus [1]) does the source give for `CCCCC/C=C\C/C=C\C/C=C\C/C=C\CCCC(=O)NCC` here?
**A.** The inhibition at 50 µM was 100%.

**Q.** With `CCCCCCCC/C=C\CCCCCCCC(=O)NC` as the compound, how does the inhibition at 50 µM (Rattus norvegicus [1]) read?
**A.** The inhibition at 50 µM was 100%.

**Q.** What about the inhibition at 20 µM (Rattus norvegicus [2]) of the same compound?
**A.** The inhibition at 20 µM was 70%.

**Q.** For `CCCCC/C=C\C/C=C\C/C=C\C/C=C\CCCC(=O)N(CCO)CCO`, which inhibition at 50 µM (Rattus norvegicus [1]) is on record?
**A.** Its inhibition at 50 µM is 0%.

**Q.** And the inhibition at 20 µM (Rattus norvegicus [2])?
**A.** The inhibition at 20 µM was 0%.

**Q.** How did the inhibition at 50 µM (Rattus norvegicus [1]) turn out when `CCCCCCCC/C=C\CCCCCCCC(=O)NCCCO` was run?
**A.** The inhibition at 50 µM was 100%.

**Q.** With `CCCCCCCC/C=C\CCCCCCCC(=O)NCCC` as the compound, how does the inhibition at 50 µM (Rattus norvegicus [1]) read?
**A.** The inhibition at 50 µM was 90%.

**Q.** And the inhibition at 20 µM (Rattus norvegicus [2])?
**A.** Its inhibition at 20 µM is 50%.

**Q.** Which inhibition at 50 µM (Rattus norvegicus [1]) does the source give for `CCCCC/C=C\C/C=C\C/C=C\C/C=C\CCCC(=O)NC(C)C` here?
**A.** Its inhibition at 50 µM is 100%.

**Q.** How did the inhibition at 50 µM (Rattus norvegicus [1]) turn out when `CCCCCCCC/C=C\CCCCCCCC(=O)NCCCc1ccccc1` was run?
**A.** Its inhibition at 50 µM is 0%.

**Q.** `C=CCNC(=O)CCC/C=C\C/C=C\C/C=C\C/C=C\CCCCC` was tested. Which inhibition at 50 µM (Rattus norvegicus [1]) did it give?
**A.** Its inhibition at 50 µM is 90%.

**Q.** `CCCCCCCC/C=C\CCCCCCCC(=O)NO` was tested. Which inhibition at 50 µM (Rattus norvegicus [1]) did it give?
**A.** The inhibition at 50 µM was 100%.

**Q.** `CCCCCCCC/C=C\CCCCCCCC(=O)NCCCC` was tested. Which inhibition at 50 µM (Rattus norvegicus [1]) did it give?
**A.** Its inhibition at 50 µM is 100%.

**Q.** With `CCCCC/C=C\C/C=C\C/C=C\C/C=C\CCCC(=O)N(CCC)CCC` as the compound, how does the inhibition at 50 µM (Rattus norvegicus [1]) read?
**A.** Its inhibition at 50 µM is 10%.

**Q.** With `CCCCC/C=C\C/C=C\C/C=C\C/C=C\CCCC(=O)NC1CC1` as the compound, how does the inhibition at 50 µM (Rattus norvegicus [1]) read?
**A.** The inhibition at 50 µM was 100%.

**Q.** How did the inhibition at 50 µM (Rattus norvegicus [1]) turn out when `CCCCCCCC/C=C\CCCCCCCC(=O)N(C)OC` was run?
**A.** Its inhibition at 50 µM is 100%.

**Q.** What about the inhibition at 20 µM (Rattus norvegicus [2]) of the same compound?
**A.** The inhibition at 20 µM was 100%.

**Q.** For `CCCCC/C=C\C/C=C\C/C=C\C/C=C\CCCC(=O)N1CCCC1`, which inhibition at 50 µM (Rattus norvegicus [1]) is on record?
**A.** Its inhibition at 50 µM is 100%.

**Q.** With `CCCCC/C=C\C/C=C\C/C=C\C/C=C\CCCC(=O)NCCC` as the compound, how does the inhibition at 50 µM (Rattus norvegicus [1]) read?
**A.** Its inhibition at 50 µM is 100%.

**Q.** For `CCCCC/C=C\C/C=C\C/C=C\C/C=C\CCCC(=O)NCCO` [ANANDAMIDE], which inhibition at 50 µM (Rattus norvegicus [1]) is on record?
**A.** The inhibition at 50 µM was 100%.

**Q.** And the inhibition at 20 µM (Rattus norvegicus [2])?
**A.** Its inhibition at 20 µM is 35%.

**Q.** For `CCCCC/C=C\C/C=C\C/C=C\C/C=C\CCCC(N)=O` [ARACHIDONAMIDE], which inhibition at 50 µM (Rattus norvegicus [1]) is on record?
**A.** Its inhibition at 50 µM is 100%.

**Q.** And the inhibition at 20 µM (Rattus norvegicus [2])?
**A.** Its inhibition at 20 µM is 90%.

**Q.** With `CCCCC/C=C\C/C=C\C/C=C\C/C=C\CCCC(=O)O` [ARACHIDONIC ACID] as the compound, how does the inhibition at 50 µM (Rattus norvegicus [1]) read?
**A.** The inhibition at 50 µM was 0%.

**Q.** What about the inhibition at 20 µM (Rattus norvegicus [2]) of the same compound?
**A.** Its inhibition at 20 µM is 0%.

**Q.** `CCCCCCCC/C=C\CCCCCCCC(N)=O` [OLEAMIDE] was tested. Which inhibition at 50 µM (Rattus norvegicus [1]) did it give?
**A.** Its inhibition at 50 µM is 100%.

**Q.** What about the inhibition at 20 µM (Rattus norvegicus [2]) of the same compound?
**A.** Its inhibition at 20 µM is 100%.

**Q.** With `CCCCCCCC/C=C\CCCCCCCC(=O)Nc1ccccc1` [OLEIC ACID ANILIDE] as the compound, how does the inhibition at 50 µM (Rattus norvegicus [1]) read?
**A.** The inhibition at 50 µM was 0%.

**Q.** Which inhibition at 50 µM (Rattus norvegicus [1]) does the source give for `CCCCCCCC/C=C\CCCCCCCC(=O)O` [OLEIC ACID] here?
**A.** Its inhibition at 50 µM is 0%.

**Q.** And the inhibition at 20 µM (Rattus norvegicus [2])?
**A.** The inhibition at 20 µM was 0%.

**Q.** For `CCCCCCCC/C=C\CCCCCCCC(=O)NCCO` [OLEOYLETHANOLAMIDE], which inhibition at 50 µM (Rattus norvegicus [1]) is on record?
**A.** Its inhibition at 50 µM is 100%.

**Q.** And the inhibition at 20 µM (Rattus norvegicus [2])?
**A.** Its inhibition at 20 µM is 0%.
